The source made the active and inactive calls. The calls are words filed in the database; no cut-off is given here.
Key:
Urotensin-2 receptor [1] = target: T1, Urotensin-2 receptor (Homo sapiens, UniProt Q9UKP6); test: Displacement of [125I]U2 from human UT receptor in RMS13 cells after 2.5 hrs; assay type: cell-based
T1 sequence (Q9UKP6 whole entry): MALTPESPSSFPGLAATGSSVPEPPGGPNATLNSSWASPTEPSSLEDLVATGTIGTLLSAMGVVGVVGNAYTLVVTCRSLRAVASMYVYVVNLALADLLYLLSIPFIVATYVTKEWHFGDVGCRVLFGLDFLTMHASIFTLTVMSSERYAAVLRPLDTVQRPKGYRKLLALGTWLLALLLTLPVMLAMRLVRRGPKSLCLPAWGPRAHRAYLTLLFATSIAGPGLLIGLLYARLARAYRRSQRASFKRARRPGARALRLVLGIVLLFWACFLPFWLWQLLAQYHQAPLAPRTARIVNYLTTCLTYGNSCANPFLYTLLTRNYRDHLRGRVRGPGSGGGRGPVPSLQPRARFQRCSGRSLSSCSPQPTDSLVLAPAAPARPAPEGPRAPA

Urotensin-2 receptor [2] = target: T2, Urotensin-2 receptor (Rattus norvegicus, UniProt P49684); test: Antagonist activity at rat UT receptor transfected in CHOK1 cells assessed as calcium mobilization by FLIPR method; assay type: functional, cell-based, CHO-K1
T2 sequence (P49684 whole entry): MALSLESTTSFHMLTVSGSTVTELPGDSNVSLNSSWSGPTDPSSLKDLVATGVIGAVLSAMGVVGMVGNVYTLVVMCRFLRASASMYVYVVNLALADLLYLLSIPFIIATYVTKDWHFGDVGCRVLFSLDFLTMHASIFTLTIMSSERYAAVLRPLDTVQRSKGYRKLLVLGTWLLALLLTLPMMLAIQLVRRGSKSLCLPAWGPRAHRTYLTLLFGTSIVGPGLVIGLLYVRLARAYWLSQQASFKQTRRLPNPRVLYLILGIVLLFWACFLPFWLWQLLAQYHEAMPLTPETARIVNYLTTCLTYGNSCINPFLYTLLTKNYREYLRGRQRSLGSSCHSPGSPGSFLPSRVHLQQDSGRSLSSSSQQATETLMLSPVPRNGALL

[3] = Half life in rat at 2 mg/kg, iv; assay type: ADME, organism-based; set-up: dose 2 mg/kg, route intravenous; conditions: in vivo
Rattus norvegicus [4] = test: Effect on ear pinna temperature in sc dosed rat; assay type: functional, organism-based
Rattus norvegicus [5] = test: Decrease in U2-induced ear pinna temperature in iv dosed rat; assay type: functional, organism-based
[6] = Cmax in rat at 2 mg/kg, iv; assay type: ADME, organism-based; set-up: dose 2 mg/kg, route intravenous; conditions: in vivo

Row | SMILES | Ki (Urotensin-2 receptor [1]) [nM] | IC50 (Urotensin-2 receptor [2]) [nM] | also measured
1 | O=C(NCC1CCN(C(=O)c2ccccc2)CC1)c1cc(Cl)ccc1C1CCN(CCN2C(=O)COc3ccccc32)CC1 | 160 |  | 
2 | O=C1COc2ccccc2N1CCN1CCC(C(=O)NCc2ccccc2)(c2ccccc2)CC1 |  | 43000 | 
3 | CN(CCCc1ccccc1)C(=O)C1(c2ccccc2)CCN(CCN2C(=O)COc3ccccc32)CC1 |  | 9100 | 
4 | CN(CCc1ccccc1)C(=O)C1(c2ccccc2)CCN(CCN2C(=O)COc3ccccc32)CC1 |  | 12000 | 
5 | CC(C)(C)OC(=O)N1CCN(CCNC(=O)c2cc(Cl)ccc2C2CCN(CCN3C(=O)COc4ccccc43)CC2)CC1 | 65 | 10 | half-life [3]: 2.12 h; Activity (Rattus norvegicus [4]): inactive; Activity (Rattus norvegicus [5]): Active; Cmax [6]: 553 ng/mL

Continued, in another order:

Row | Ki (Urotensin-2 receptor [1]) [nM] | SMILES | IC50 (Urotensin-2 receptor [2]) [nM] | also measured
6 | 27 | CC(C)(C)CC(=O)N1CCC(CNC(=O)c2cc(Cl)ccc2C2CCN(CCN3C(=O)COc4ccccc43)CC2)CC1 |  | 
7 | 77 | CC(C)(C)OC(=O)N1CCC(CCNC(=O)c2cc(Cl)ccc2C2CCN(CCN3C(=O)COc4ccccc43)CC2)CC1 |  | 

From ChEMBL document CHEMBL1137625, “Phenylpiperidine-benzoxazinones as urotensin-II receptor antagonists: synthesis, SAR, and in vivo assessment” (Bioorg Med Chem Lett, 2007)
